Data as given in ChEMBL document CHEMBL3400024, “α-Adrenoceptor antagonistic and hypotensive properties of novel arylpiperazine derivatives of pyrrolidin-2-one” (Bioorg Med Chem, 2015).
The source made the active and inactive calls. The calls are words filed in the database; no cut-off is given here.

Key:
[1] = target: T1, Adrenergic receptor alpha-2 (Rattus norvegicus, UniProt P22086+P19328+P22909); assay: Displacement of [3H]clonidine from rat cerebral cortex alpha-2 adrenergic receptor by liquid scintillation counting analysis; format: tissue-based
T1 sequence (P22086 whole entry): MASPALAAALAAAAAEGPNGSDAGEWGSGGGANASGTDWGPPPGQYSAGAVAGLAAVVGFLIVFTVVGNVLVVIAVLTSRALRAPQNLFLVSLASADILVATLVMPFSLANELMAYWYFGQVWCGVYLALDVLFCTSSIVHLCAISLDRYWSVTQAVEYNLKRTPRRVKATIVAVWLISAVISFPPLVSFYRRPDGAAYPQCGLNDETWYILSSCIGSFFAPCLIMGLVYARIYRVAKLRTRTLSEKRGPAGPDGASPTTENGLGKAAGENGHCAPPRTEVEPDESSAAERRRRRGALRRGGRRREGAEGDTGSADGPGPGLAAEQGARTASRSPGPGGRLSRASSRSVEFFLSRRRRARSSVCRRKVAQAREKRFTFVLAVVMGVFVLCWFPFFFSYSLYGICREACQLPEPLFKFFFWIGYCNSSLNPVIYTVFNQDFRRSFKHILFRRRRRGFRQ
T1 sequence (P19328 whole entry): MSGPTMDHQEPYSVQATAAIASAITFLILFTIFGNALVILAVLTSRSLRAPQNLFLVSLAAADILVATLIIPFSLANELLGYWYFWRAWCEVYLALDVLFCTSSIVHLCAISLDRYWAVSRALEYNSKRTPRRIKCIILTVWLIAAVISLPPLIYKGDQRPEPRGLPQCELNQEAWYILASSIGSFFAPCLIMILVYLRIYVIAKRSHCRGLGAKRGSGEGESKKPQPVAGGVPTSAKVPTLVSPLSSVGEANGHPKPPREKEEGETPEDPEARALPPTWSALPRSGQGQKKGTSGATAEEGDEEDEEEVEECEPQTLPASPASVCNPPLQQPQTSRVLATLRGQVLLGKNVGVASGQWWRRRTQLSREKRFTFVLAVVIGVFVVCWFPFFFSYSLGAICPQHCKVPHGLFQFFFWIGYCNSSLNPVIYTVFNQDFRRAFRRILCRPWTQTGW
T1 sequence (P22909 whole entry): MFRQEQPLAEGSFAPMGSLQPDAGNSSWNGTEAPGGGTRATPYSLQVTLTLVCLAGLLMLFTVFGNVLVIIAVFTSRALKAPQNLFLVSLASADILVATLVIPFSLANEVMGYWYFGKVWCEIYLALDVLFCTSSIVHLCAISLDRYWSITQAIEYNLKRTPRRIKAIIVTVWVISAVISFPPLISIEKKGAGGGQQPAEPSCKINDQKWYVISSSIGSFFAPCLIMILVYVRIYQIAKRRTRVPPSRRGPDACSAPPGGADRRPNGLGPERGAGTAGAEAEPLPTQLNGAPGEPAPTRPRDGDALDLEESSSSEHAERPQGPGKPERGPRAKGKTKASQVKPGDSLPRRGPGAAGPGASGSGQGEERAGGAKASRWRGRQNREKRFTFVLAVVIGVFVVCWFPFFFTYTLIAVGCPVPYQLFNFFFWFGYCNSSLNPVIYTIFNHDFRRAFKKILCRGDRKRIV

[2] = target: T2, Adrenergic receptor alpha-1 (Rattus norvegicus, UniProt P15823+P23944+P43140); assay: Displacement of [3H]prazosin from rat cerebral cortex alpha-1 adrenergic receptor by liquid scintillation counting analysis; format: tissue-based
T2 sequence (P15823 whole entry): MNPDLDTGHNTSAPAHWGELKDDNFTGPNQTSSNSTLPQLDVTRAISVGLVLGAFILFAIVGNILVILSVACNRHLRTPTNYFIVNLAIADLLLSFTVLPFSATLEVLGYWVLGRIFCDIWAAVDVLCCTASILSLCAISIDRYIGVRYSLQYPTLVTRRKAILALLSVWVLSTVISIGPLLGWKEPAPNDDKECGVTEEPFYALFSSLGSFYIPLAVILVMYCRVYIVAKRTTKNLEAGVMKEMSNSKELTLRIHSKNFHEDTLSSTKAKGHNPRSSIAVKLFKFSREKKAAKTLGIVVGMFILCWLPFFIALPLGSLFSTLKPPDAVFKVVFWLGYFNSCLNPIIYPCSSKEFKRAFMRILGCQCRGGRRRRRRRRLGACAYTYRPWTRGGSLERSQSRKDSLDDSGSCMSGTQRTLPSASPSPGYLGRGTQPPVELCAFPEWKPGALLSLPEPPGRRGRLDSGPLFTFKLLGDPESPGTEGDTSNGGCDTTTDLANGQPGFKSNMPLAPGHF
T2 sequence (P23944 whole entry): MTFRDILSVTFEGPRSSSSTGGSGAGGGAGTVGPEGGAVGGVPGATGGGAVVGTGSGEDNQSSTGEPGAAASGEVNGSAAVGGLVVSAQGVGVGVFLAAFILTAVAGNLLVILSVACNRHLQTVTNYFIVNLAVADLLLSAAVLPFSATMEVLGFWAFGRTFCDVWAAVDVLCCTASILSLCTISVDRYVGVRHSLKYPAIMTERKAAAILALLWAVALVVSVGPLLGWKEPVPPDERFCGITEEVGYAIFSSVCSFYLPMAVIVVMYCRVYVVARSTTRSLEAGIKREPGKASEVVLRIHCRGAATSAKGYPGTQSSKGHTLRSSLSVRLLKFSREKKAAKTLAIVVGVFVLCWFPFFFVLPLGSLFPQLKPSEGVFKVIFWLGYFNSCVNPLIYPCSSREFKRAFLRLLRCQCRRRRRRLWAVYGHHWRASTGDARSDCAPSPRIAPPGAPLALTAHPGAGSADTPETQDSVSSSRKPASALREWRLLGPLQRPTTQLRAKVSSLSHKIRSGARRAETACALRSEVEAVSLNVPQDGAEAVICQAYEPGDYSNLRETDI
T2 sequence (P43140 whole entry): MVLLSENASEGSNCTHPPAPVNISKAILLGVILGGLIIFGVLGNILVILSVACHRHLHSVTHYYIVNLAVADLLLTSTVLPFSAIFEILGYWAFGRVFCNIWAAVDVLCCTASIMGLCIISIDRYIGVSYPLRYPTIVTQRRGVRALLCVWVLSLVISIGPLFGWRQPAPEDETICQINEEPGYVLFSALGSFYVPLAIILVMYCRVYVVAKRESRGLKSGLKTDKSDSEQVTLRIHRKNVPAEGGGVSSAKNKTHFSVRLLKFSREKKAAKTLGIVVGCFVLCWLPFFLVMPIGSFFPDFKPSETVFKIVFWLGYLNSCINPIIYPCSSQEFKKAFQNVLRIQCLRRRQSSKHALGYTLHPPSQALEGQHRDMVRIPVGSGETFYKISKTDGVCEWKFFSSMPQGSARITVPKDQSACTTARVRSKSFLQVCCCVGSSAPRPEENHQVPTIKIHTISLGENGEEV

[3] = system: Rattus norvegicus; assay: Hypotensive activity in normotensive anesthetized Wistar rat assessed as reduction of systolic pressure at 1 to 5 mg/kg, iv measured up to 60 mins; format: functional, organism-based
[4] = target: T3, Alpha-1A adrenergic receptor (Homo sapiens, UniProt P35348); assay: Agonist activity at alpha-1A adrenergic receptor (unknown origin) after 5 hrs by CCF4-AM staining-based cellular assay
T3 sequence (P35348 whole entry): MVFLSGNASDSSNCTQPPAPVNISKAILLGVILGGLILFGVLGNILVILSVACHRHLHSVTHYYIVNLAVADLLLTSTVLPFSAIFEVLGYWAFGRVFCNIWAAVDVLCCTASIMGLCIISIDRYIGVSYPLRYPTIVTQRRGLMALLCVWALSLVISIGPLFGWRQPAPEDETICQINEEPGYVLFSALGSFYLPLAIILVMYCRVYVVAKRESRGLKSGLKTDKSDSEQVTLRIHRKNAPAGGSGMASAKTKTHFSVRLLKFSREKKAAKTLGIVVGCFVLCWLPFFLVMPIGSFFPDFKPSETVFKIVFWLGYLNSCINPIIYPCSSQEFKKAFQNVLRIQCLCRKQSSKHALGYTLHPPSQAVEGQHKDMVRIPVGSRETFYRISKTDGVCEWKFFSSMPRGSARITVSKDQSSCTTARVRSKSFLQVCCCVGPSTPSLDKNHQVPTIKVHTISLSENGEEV

[5] = target: T4, Alpha-1B adrenergic receptor (Homo sapiens, UniProt P35368); assay: Antagonist activity at alpha-1B adrenergic receptor (unknown origin) incubated for 30 mins prior to agonist addition measured after 5 hrs by CCF4-AM staining-based cellular assay
T4 sequence (P35368 whole entry): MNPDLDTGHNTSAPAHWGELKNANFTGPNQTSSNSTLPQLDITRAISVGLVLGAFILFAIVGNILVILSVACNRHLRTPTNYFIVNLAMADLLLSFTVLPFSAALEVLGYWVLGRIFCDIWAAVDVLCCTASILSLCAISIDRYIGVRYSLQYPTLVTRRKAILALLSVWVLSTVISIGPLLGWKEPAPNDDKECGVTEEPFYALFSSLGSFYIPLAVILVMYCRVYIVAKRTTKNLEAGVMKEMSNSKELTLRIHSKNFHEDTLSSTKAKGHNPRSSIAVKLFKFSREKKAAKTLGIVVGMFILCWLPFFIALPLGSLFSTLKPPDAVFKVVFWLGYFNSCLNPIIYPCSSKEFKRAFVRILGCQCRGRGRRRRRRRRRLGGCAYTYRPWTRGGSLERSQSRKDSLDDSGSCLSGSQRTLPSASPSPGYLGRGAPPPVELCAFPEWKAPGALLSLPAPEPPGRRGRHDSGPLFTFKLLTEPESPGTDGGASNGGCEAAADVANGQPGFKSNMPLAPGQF

[6] = system: Rattus norvegicus; assay: Hypotensive activity in normotensive anesthetized Wistar rat assessed as reduction of diastolic pressure at 1 to 5 mg/kg, iv measured up to 60 mins; format: functional, organism-based
[7] = target: T3, Alpha-1A adrenergic receptor; assay: Antagonist activity at alpha-1A adrenergic receptor (unknown origin) incubated for 30 mins prior to agonist addition measured after 5 hrs by CCF4-AM staining-based cellular assay
[8] = target: T5, Adrenergic receptor alpha-1 (Homo sapiens, UniProt P35348+P25100+P35368); assay: Binding affinity to alpha-1 adrenergic receptor (unknown origin)
T5 sequence (P35348 whole entry): T3 sequence (P35348 whole entry)
T5 sequence (P25100 whole entry): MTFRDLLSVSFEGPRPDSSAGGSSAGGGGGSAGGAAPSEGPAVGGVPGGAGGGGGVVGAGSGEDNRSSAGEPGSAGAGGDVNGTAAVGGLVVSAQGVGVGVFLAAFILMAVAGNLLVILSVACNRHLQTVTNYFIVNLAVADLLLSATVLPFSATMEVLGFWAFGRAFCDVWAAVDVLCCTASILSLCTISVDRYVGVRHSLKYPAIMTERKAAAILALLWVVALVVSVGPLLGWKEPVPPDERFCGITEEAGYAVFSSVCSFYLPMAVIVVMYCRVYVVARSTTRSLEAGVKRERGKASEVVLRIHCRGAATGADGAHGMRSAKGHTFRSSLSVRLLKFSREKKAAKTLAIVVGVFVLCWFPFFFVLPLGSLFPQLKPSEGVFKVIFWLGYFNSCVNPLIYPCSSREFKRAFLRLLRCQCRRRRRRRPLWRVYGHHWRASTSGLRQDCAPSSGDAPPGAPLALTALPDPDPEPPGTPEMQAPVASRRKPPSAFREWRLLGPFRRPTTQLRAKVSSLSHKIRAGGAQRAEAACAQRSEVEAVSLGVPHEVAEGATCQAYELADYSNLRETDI
T5 sequence (P35368 whole entry): T4 sequence (P35368 whole entry)

| Structure (SMILES) | pKi [1] | pKi [2] | Activity [3] | EC50 [4] | EC50 [5] [nM] | Activity [6] | EC50 [7] | pKi [8] | EC50 ([7]; read-out: EC50) [nM] |
| --- | --- | --- | --- | --- | --- | --- | --- | --- | --- |
| COc1ccc(N2CCN(CCCCN3CCCC3=O)CC2)cc1.Cl | < 5 | < 5 | – | – | – | – | – | – | – |
| Cc1ccccc1N1CCN(CCCCN2CCCC2=O)CC1.Cl | 6.05 | 7.14 | Active | Not Active | 3.5 | Active | Not Active | – | – |
| O=C1CCCN1CCN1CCN(c2ccccc2Cl)CC1 | – | – | – | – | – | – | – | 7.13 | – |
| Cl.O=C1CCCN1CCCCN1CCN(c2ccccc2Cl)CC1 | 6.01 | 7.3 | Active | – | 2.53 | Active | – | – | 138 |
| Cl.O=C1CCCN1CCN1CCN(C(c2ccc(F)cc2)c2ccc(F)cc2)CC1 | 6.01 | 6.43 | – | – | – | – | – | – | – |
| Cl.O=C1CCCN1CCCCN1CCN(c2ccc(F)cc2F)CC1 | < 5 | 6.77 | – | Not Active | 46.9 | – | Not Active | – | – |
| Cl.O=C1CCCN1CCCCN1CCN(c2ccccc2O)CC1 | < 5 | 6.44 | – | Not Active | 165 | – | Not Active | – | – |
| Cc1ccccc1N1CCN(CCN2CCCC2=O)CC1.Cl | 5.92 | 6.09 | – | – | – | – | – | – | – |
| Cl.O=C1CCCN1CCN1CCN(c2ccc(Cl)cc2)CC1 | < 5 | 5.51 | – | – | – | – | – | – | – |
| COc1ccccc1N1CCN(CCN2CCCC2=O)CC1.Cl | < 5 | < 5 | – | – | – | – | – | – | – |
| Cl.O=C1CCCN1CCCCN1CCN(C(c2ccc(F)cc2)c2ccc(F)cc2)CC1 | 5.92 | 7.07 | – | – | 131 | – | – | – | 329 |
| Cl.O=C1CCCN1CCCCN1CCN(C(c2ccccc2)c2ccccc2)CC1 | < 5 | 6.65 | – | Not Active | 289 | – | Not Active | – | – |
| COc1ccc(N2CCN(CCN3CCCC3=O)CC2)cc1.Cl | < 5 | 5.92 | – | – | – | – | – | – | – |
| Cc1ccccc1N1CCN(CCN2CCCC2=O)CC1 | – | – | – | – | – | – | – | 7.05 | – |
